Assay: xn = mol fraction of the nth substance listed
Details: 101.33 kPa, Liquid

CCCCCl [1-chlorobutane] + CC(C)(C)O
Details | mass density [kg/m3] | viscosity [mPa·s]
298.15 K, x2 = 0.0966 | – | 0.442
298.15 K, x2 = 0.2 | – | 0.476
298.15 K, x2 = 0.2904 | – | 0.517
298.15 K, x2 = 0.3901 | – | 0.577
298.15 K, x2 = 0.4897 | – | 0.662
298.15 K, x2 = 0.5956 | – | 0.799
298.15 K, x2 = 0.6919 | – | 1
298.15 K, x2 = 0.8008 | – | 1.425
298.15 K, x2 = 0.8889 | – | 2.112
303.15 K, x2 = 0.0924 | 864.09 | –
303.15 K, x2 = 0.0966 | – | 0.419
303.15 K, x2 = 0.1915 | 853.49 | –
303.15 K, x2 = 0.2 | – | 0.449
303.15 K, x2 = 0.2758 | 844.75 | –
303.15 K, x2 = 0.2904 | – | 0.486
303.15 K, x2 = 0.38 | 834.23 | –
303.15 K, x2 = 0.3901 | – | 0.537
303.15 K, x2 = 0.481 | 824.02 | –
303.15 K, x2 = 0.4897 | – | 0.611
303.15 K, x2 = 0.5729 | 814.91 | –
303.15 K, x2 = 0.5956 | – | 0.727
303.15 K, x2 = 0.6749 | 804.89 | –
303.15 K, x2 = 0.6919 | – | 0.892
303.15 K, x2 = 0.7778 | 795.09 | –
303.15 K, x2 = 0.8008 | – | 1.232
303.15 K, x2 = 0.8889 | – | 1.752
303.15 K, x2 = 0.8938 | 784.46 | –
308.15 K, x2 = 0.0966 | – | 0.397
308.15 K, x2 = 0.0969 | 857.96 | –
308.15 K, x2 = 0.1912 | 847.87 | –
308.15 K, x2 = 0.2 | – | 0.423
308.15 K, x2 = 0.2786 | 838.9 | –
308.15 K, x2 = 0.2904 | – | 0.456
308.15 K, x2 = 0.3839 | 828.23 | –
308.15 K, x2 = 0.3901 | – | 0.502
308.15 K, x2 = 0.4811 | 818.5 | –
308.15 K, x2 = 0.4897 | – | 0.565
308.15 K, x2 = 0.5844 | 808.35 | –
308.15 K, x2 = 0.5956 | – | 0.664
308.15 K, x2 = 0.6849 | 798.55 | –
308.15 K, x2 = 0.6919 | – | 0.801
308.15 K, x2 = 0.7881 | 788.78 | –
308.15 K, x2 = 0.8008 | – | 1.081
308.15 K, x2 = 0.8889 | – | 1.474
308.15 K, x2 = 0.8957 | 779.05 | –
313.15 K, x2 = 0.093 | 852.6 | –
313.15 K, x2 = 0.0966 | – | 0.378
313.15 K, x2 = 0.1869 | 842.51 | –
313.15 K, x2 = 0.2 | – | 0.4
313.15 K, x2 = 0.2685 | 834.13 | –
313.15 K, x2 = 0.2904 | – | 0.428
313.15 K, x2 = 0.3778 | 823.11 | –
313.15 K, x2 = 0.3901 | – | 0.468
313.15 K, x2 = 0.4841 | 812.56 | –
313.15 K, x2 = 0.4897 | – | 0.525
313.15 K, x2 = 0.5777 | 803.43 | –
313.15 K, x2 = 0.5956 | – | 0.608
313.15 K, x2 = 0.6796 | 793.58 | –
313.15 K, x2 = 0.6919 | – | 0.724
313.15 K, x2 = 0.7766 | 784.47 | –
313.15 K, x2 = 0.8008 | – | 0.947
313.15 K, x2 = 0.8889 | – | 1.255
313.15 K, x2 = 0.8972 | 773.57 | –
318.15 K, x2 = 0.0918 | 847.04 | –
318.15 K, x2 = 0.0966 | – | 0.359
318.15 K, x2 = 0.1839 | 837.08 | –
318.15 K, x2 = 0.2 | – | 0.38
318.15 K, x2 = 0.2674 | 828.47 | –
318.15 K, x2 = 0.2904 | – | 0.404
318.15 K, x2 = 0.3797 | 817.22 | –
318.15 K, x2 = 0.3901 | – | 0.439
318.15 K, x2 = 0.4809 | 807.29 | –
318.15 K, x2 = 0.4897 | – | 0.488
318.15 K, x2 = 0.5799 | 797.62 | –
318.15 K, x2 = 0.5956 | – | 0.56
318.15 K, x2 = 0.678 | 788.38 | –
318.15 K, x2 = 0.6919 | – | 0.658
318.15 K, x2 = 0.7833 | 778.42 | –
318.15 K, x2 = 0.8008 | – | 0.841
318.15 K, x2 = 0.8889 | – | 1.083
318.15 K, x2 = 0.8905 | 768.84 | –

Reference: the NIST ThermoML archive (doi:10.1021/je0496140)
